Experiment: Oral administration to dogs, plasma levels of compound of formula I (bioavailability)
Type: in vivo
Conditions: dog, plasma level of compound of formula I
Procedure: Suitable amount of amorphous dispersion of Example I and the crystalline form of compound of formula I suspended in a vehicle were administered orally to dogs. Blood samples were withdrawn at various time intervals and the plasma levels of compound of formula I were recorded. The Cmax, AUC0 to 1 and AUC0-∞, in plasma are tabulated below.

- AUC(0-inf): 388 ng·h/mL
- AUC(0-t): 290 ng·h/mL
- Cmax: 41 ng/mL
Compound: Cc1ccc(C(=O)NNC(=O)c2c(C)cccc2Cl)cc1C#Cc1ccc(NC(=O)C2CC2)nc1 [Compound of formula I in a vehicle, cyclopropanecarboxylic acid (5-{5-[N′-(2-chloro-6-methylbenzoyl) hydrazinocarbonyl]-2-methyl-phenylethynyl}-pyridin-2-yl)amide]
